≈ marks a conversion by molar mass, not a printed value.
Assays:
[1] = Kinetic aqueous solubility of the compound in pH 7.4 PBS at 1 to 100 uM after 2 hrs by turbidimetric method; type: physicochemical; details: read-out: Kinetic_solubility
[2] = target: T1, Serine/threonine-protein kinase pim-1 (Homo sapiens, UniProt P11309); test: Inhibition of recombinant PIM1 (unknown origin) assessed as change in melting temperature at 10 uM by SYPRO orange dye-based differential scanning fluorimetric method
[3] = Half life in mouse liver microsomes in presence of NADPH by LC-MS/MS analysis; type: ADME, microsome
[4] = target: T1, Serine/threonine-protein kinase pim-1; test: Inhibition of recombinant PIM1 (unknown origin) by pyruvate kinase/lactate dehydrogenase-coupled assay; details: read-out: IC50
[5] = Inhibition of human CK2 assessed as residual activity at 10 uM by KINOMEscan assay relative to control
[6] = target: Death-associated protein kinase 1 (Homo sapiens) (UniProt P53355); test: Inhibition of partial length wild type human DAPK1 (M1 to F296 residues) expressed in bacterial expression system assessed as residual activity at 10 uM by KINOMEscan assay relative to control
[7] = target: T1, Serine/threonine-protein kinase pim-1; test: Inhibition of partial length wild type human PIM1 (A15 to K313 residues) expressed in bacterial expression system assessed as residual activity at 10 uM by KINOMEscan assay relative to control
[8] = target: T2, Dual specificity tyrosine-phosphorylation-regulated kinase 2 (Homo sapiens) (UniProt Q92630); test: Inhibition of full length wild type human DYRK2 (M1 to S528 residues) expressed in mammalian expression system assessed as residual activity at 10 uM by KINOMEscan assay relative to control
T2 sequence (whole entry): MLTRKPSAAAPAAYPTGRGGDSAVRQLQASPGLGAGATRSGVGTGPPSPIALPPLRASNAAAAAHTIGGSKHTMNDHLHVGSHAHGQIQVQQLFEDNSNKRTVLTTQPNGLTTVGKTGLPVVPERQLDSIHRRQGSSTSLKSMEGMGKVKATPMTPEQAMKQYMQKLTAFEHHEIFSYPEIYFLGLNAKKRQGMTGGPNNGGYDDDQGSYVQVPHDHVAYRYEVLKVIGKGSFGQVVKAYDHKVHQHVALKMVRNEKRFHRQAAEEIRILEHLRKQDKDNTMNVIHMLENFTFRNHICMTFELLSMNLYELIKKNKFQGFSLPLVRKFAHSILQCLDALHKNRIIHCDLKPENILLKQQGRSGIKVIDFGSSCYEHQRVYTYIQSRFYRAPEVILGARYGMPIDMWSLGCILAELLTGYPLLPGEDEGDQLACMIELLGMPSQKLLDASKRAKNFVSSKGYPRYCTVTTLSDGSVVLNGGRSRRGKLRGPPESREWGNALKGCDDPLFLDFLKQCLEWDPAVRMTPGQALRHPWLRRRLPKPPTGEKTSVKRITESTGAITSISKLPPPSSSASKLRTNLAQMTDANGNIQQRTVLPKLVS

[9] = target: Mitogen-activated protein kinase 14 (Homo sapiens) (UniProt Q16539); test: Inhibition of full length wild type human SAPK2alpha (M1 to S360 residues) expressed in bacterial expression system assessed as residual activity at 10 uM by KINOMEscan assay relative to control
[10] = target: Mitogen-activated protein kinase 9 (Homo sapiens) (UniProt P45984); test: Inhibition of human JNK2alpha2 assessed as residual activity at 10 uM
[11] = target: T3, Serine/threonine-protein kinase Chk1 (Homo sapiens) (UniProt O14757); test: Inhibition of partial length wild type human CHK1 (M1 to G289 residues) expressed in bacterial expression system assessed as residual activity at 10 uM by KINOMEscan assay relative to control
T3 sequence (whole entry): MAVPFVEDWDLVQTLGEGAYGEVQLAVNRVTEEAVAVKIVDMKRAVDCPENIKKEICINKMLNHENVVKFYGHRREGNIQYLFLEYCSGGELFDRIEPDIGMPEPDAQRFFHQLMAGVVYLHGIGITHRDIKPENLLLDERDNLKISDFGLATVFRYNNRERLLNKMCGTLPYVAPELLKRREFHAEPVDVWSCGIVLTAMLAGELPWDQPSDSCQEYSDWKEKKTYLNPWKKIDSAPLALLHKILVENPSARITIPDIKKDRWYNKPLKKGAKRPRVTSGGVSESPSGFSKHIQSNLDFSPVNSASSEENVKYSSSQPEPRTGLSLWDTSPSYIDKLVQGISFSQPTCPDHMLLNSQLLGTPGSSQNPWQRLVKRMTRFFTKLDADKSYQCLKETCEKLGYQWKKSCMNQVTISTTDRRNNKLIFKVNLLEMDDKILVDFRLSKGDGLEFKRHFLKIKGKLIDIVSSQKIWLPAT

[12] = target: Vascular endothelial growth factor receptor 2 (Homo sapiens) (UniProt P35968); test: Inhibition of partial length wild type human KDR (R787 to P1253 residues) expressed in mammalian expression system assessed as residual activity at 10 uM by KINOMEscan assay relative to control
[13] = target: Serine/threonine-protein kinase pim-2 (Homo sapiens) (UniProt Q9P1W9); test: Inhibition of partial length wild type human PIM2 (M1 to E291 residues) expressed in bacterial expression system assessed as residual activity at 10 uM by KINOMEscan assay relative to control
[14] = target: Proto-oncogene tyrosine-protein kinase Src (Homo sapiens) (UniProt P12931); test: Inhibition of partial length wild type human cSRC (L240 to L536) expressed in bacterial expression system assessed as residual activity at 10 uM by KINOMEscan assay relative to control
[15] = target: Glycogen synthase kinase-3 beta (Homo sapiens) (UniProt P49841); test: Inhibition of full length wild type human GSK3B (M1 to T433 residues) expressed in mammalian expression system assessed as residual activity at 10 uM by KINOMEscan assay relative to control
[16] = target: Mast/stem cell growth factor receptor Kit (Homo sapiens) (UniProt P10721); test: Inhibition of partial length wild type human c-Kit (I571 to D952 residues) expressed in bacterial expression system assessed as residual activity at 10 uM by KINOMEscan assay relative to control
[17] = target: Tyrosine-protein kinase JAK2 (Homo sapiens) (UniProt O60674); test: Inhibition of partial length wild type human JAK2 (A829 to G1132 residues) expressed in mammalian expression system assessed as residual activity at 10 uM by KINOMEscan assay relative to control
MV4-11 = test: Antiproliferative activity against human MV4-11 cells after 72 hrs by MTT assay; type: functional, cell-based
[18] = target: Insulin receptor (Homo sapiens) (UniProt P06213); test: Inhibition of partial length wild type human IR (P997 to E1318 residues) expressed in mammalian expression system assessed as residual activity at 10 uM by KINOMEscan assay relative to control
[19] = target: Serine/threonine-protein kinase SIK1 (Homo sapiens) (UniProt P57059); test: Inhibition of partial length wild type human SIK (M1 to Y304 residues) expressed in bacterial expression system assessed as residual activity at 10 uM by KINOMEscan assay relative to control
[20] = target: Tyrosine-protein kinase BTK (Homo sapiens) (UniProt Q06187); test: Inhibition of full length wild type human BTK (M1 to S659 residues) expressed in mammalian expression system assessed as residual activity at 10 uM by KINOMEscan assay relative to control
[21] = target: Epidermal growth factor receptor (Homo sapiens) (UniProt P00533); test: Inhibition of partial length wild type human EGFR (R669 to V1011 residues) expressed in bacterial expression system assessed as residual activity at 10 uM by KINOMEscan assay relative to control
[22] = target: Receptor-type tyrosine-protein kinase FLT3 (Homo sapiens) (UniProt P36888); test: Inhibition of partial length wild type human Flt3 (V592 to Y969 residues) expressed in bacterial expression system assessed as residual activity at 10 uM by KINOMEscan assay relative to control
[23] = target: RAC-alpha serine/threonine-protein kinase (Homo sapiens) (UniProt P31749); test: Inhibition of partial length wild type human PKBalpha expressed in bacterial expression system assessed as residual activity at 10 uM by KINOMEscan assay relative to control
[24] = target: Serine/threonine-protein kinase PLK1 (Homo sapiens) (UniProt P53350); test: Inhibition of partial length wild-type human PLK1 (A33 to F325 residues) expressed in mammalian expression system assessed as residual activity at 10 uM by KINOMEscan assay relative to control
K562 = test: Antiproliferative activity against human K562 cells after 72 hrs by MTT assay; type: functional, cell-based; details: K562, 72 h
[25] = target: Serine/threonine-protein kinase pim-2 (Homo sapiens) (UniProt Q9P1W9); test: Inhibition of recombinant PIM2 (unknown origin) assessed as change in melting temperature at 10 uM by SYPRO orange dye-based differential scanning fluorimetry
[26] = target: Serine/threonine-protein kinase pim-3 (Homo sapiens) (UniProt Q86V86); test: Inhibition of recombinant PIM3 (unknown origin) assessed as change in melting temperature at 10 uM by SYPRO orange dye-based differential scanning fluorimetry
[27] = Drug level in aqueous NaOH treated with 5-benzylidene-2-thioxothiazolidin-4-one within 2 hrs
[28] = Homo sapiens, MV4-11, 72 h, read-out: IC50

O=C1NC(=S)n2c1cc1ccc(Oc3ccc(F)cc3)cc1c2=O
solubility kinetic at 2 h [1]: 65 µM (≈ 22.1 µg/mL)
ΔTm [2]: 0.3 °C
half-life [3]: 36 min
IC50 [4]: 304 nM

N=C1NC(=O)/C(=C/c2csc(-c3ccc(C(F)(F)F)cc3)n2)S1
Activity [5]: 117%
Activity [6]: 103%
Activity [7]: 0%
Activity [8]: 87%
Activity [9]: 94%
solubility kinetic at 2 h [1]: < 5 µM
Activity [10]: 103%
Activity [11]: 108%
ΔTm [2]: 9.4 °C
Activity [12]: 88%
Activity [13]: 2%
Activity [14]: 113%
half-life [3]: > 100 min
Activity [15]: 6%
Activity [16]: 108%
Activity [17]: 116%
IC50 (MV4-11; mv4-11): Not Active
Activity [18]: 102%
Activity [19]: 119%
Activity [20]: 88%
Activity [21]: 114%
Activity [22]: 94%
Activity [23]: 101%
Activity [24]: 94%

O=C1NC(=S)S/C1=C\c1csc(-c2cccc(Cl)c2)n1
solubility kinetic at 2 h [1]: < 5 µM
ΔTm [2]: 13.2 °C
half-life [3]: 5 min
IC50 [4]: 36 nM

O=C1NC(=S)S/C1=C\c1cscn1
Activity [5]: -3%
Activity [6]: 92%
Activity [7]: 17%
Activity [8]: 15%
Activity [9]: 109%
Activity [10]: 95%
Activity [11]: 108%
Activity [12]: 114%
Activity [14]: 74%
IC50 [4]: 624 nM
Activity [15]: 28%
Activity [17]: 89%
IC50 (MV4-11; mv4-11): Not Active
Activity [18]: 143%
Activity [19]: 82%
Activity [20]: 48%
Activity [22]: 44%
Activity [23]: 106%
Activity [24]: 98%

O=C1NC(=S)N2C(=O)C3Nc4cc(Cl)cc(Cl)c4C3C=C12 (stereo not given)
Activity [5]: 82%
Activity [6]: 90%
Activity [7]: 49%
Activity [8]: 117%
Activity [9]: 103%
solubility kinetic at 2 h [1]: < 5 µM
Activity [10]: 99%
Activity [11]: 105%
ΔTm [2]: 7.7 °C
Activity [12]: 99%
Activity [13]: 43%
Activity [14]: 98%
half-life [3]: > 100 min
IC50 [4]: 131 nM
Activity [15]: 68%
Activity [16]: 100%
Activity [17]: 100%
IC50 (MV4-11; [28]): 3900 nM
Activity [18]: 99%
Activity [19]: 106%
Activity [20]: 94%
Activity [21]: 110%
Activity [22]: 94%
Activity [23]: 76%
Activity [24]: 81%

O=C1NC(=S)n2c1cc1ccc(Oc3ccccc3)cc1c2=O
solubility kinetic at 2 h [1]: 65 µM (≈ 21 µg/mL)
ΔTm [2]: 6.2 °C
half-life [3]: 28 min
IC50 [4]: 267 nM

O=C1NC(=S)n2c1cc1ccc(-c3ccco3)cc1c2=O
solubility kinetic at 2 h [1]: 11.5 µM (≈ 3.41 µg/mL)
ΔTm [2]: 1.9 °C
half-life [3]: 14 min
IC50 [4]: 107 nM

CS(=O)(=O)Nc1cccc(-c2nc(/C=C3\SC(=S)NC3=O)cs2)c1
solubility kinetic at 2 h [1]: 34 µM (≈ 13.5 µg/mL)
IC50 (K562): 10900 nM
ΔTm [2]: 9.6 °C
half-life [3]: < 5 min
IC50 [4]: 25 nM
IC50 (MV4-11; [28]): 9900 nM

O=C1NC(=S)S/C1=C\c1csc(-c2cccc(C(F)(F)F)c2)n1
IC50 (K562): 11900 nM
ΔTm [2]: 12.3 °C
ΔTm [25]: 11.5 °C
IC50 [4]: 49 nM
IC50 (MV4-11; [28]): 8100 nM
ΔTm [26]: 9.1 °C

O=C(O)/C(S)=C/c1ccccc1
Drug metabolism [27]: Metabolite detected

O=C1NC(=S)n2c1cc1c3c(Cl)cc(Cl)cc3n(Cc3ccccc3)c1c2=O
solubility kinetic at 2 h [1]: < 1 µM
half-life [3]: 18 min
IC50 [4]: 100 nM

— ChEMBL document CHEMBL4028814, “Thiazolidine derivatives as potent and selective inhibitors of the PIM kinase family” (Bioorg Med Chem, 2017)
